From publication PMC11961260 (Royal Society Open Science, 2025)
Peptide text beside a SMILES is read from it.

What was measured:
[1] = test system: SARS-CoV-2 main protease; conditions: read-out: IC50 value of the positive control; cited from earlier work
[2] = biological target: T1, SARS-CoV-2 main protease (M^pro) (Severe acute respiratory syndrome coronavirus 2, UniProt P0DTD1); assay: SARS-CoV-2 main protease inhibitor screening assay (Cayman Chemicals, Catalogue Number 701960); assay type: biochemical; conditions: for response in SARS-CoV-2 M^pro inhibition screening (in words: active/inactive) / % inhibition of SARS-CoV-2 M^pro: dendron 20 μM; for % inhibition of SARS-CoV-2 M^pro: 30 min pre-incubation, 2 h with substrate, room temperature, three wells
T1 construct: purchased Cayman Chemicals 701960

[3] = no reference given; cited from earlier work
[4] = fluorescence ex 340 nm/em 490 nm

Compound	response in SARS-CoV-2 M^pro inhibition screening (in words: active/inactive) [2]	% inhibition of SARS-CoV-2 M^pro [2, 4] [%]	other results
CC(C)C[C@H](NC(=O)OCc1ccccc1)C(=O)N[C@@H](CC1CCNC1=O)C(O)S(=O)(=O)O (stereo partly shown) [GC376]	–	–	IC50 [1]: 0.15 ± 0.03 µM
O=C(O)CC[C@H](NC(=O)[C@H](Cc1c[nH]c2ccccc12)NC(=O)CC[C@H](NC(=O)CNC(=O)CCN1c2ccccc2Sc2ccccc21)C(=O)N[C@@H](Cc1c[nH]c2ccccc12)C(=O)N[C@@H](CCC(=O)O)C(=O)O)C(=O)O [compound 114, Ptz-GE(WE-COOH)WE-COOH] (HELM PEPTIDE1{[O=C(CCN1c2ccccc2Sc2ccccc21)[*:2]].G.E.W.E}|PEPTIDE2{W.E}$PEPTIDE1,PEPTIDE2,3:R3-1:R1$$$V2.0)	active	33	IC50 ([2]; figure 3B, fluorescence ex 340 nm/em 490 nm): 65 µM
N[C@@H](CCC(=O)O)C(=O)O [glutamic acid]	–	–	pKa1(COOH) [3]: 2.19; pKa2(side chain COOH) [3]: 4.25
Boc-E(WE-COOH)WE-COOH [C91]	non-responsiveness	< 25	–
Ptz-GE(FE-COOH)FE-COOH [compound 112]	active	25	–
Ptz-GE(HE-COOH)HE-COOH [169A]	inactive	< 25	–
Ptz-GE(YE-COOH)YE-COOH [compound 113]	inactive	< 25	–
Ptz-GE(wE-COOH)wE-COOH [169C]	active	31	–
